“Also recorded” adds a separate entry of the source.
How the values were obtained:
circulating lymphocytes [1] = assay: Blood Lymphocyte Reduction (BLR) assay in mouse; type: in vivo, BALB/c mice; conditions: oral; for lymphocyte reduction: mice, 24 hours post dose
Experimental: (§1) Blood Lymphocyte Reduction (BLR) Assay in Rodent:
(§2) Lewis rats or BALB/c mice were dosed orally with vehicle alone (polyethylene glycol 300, “PEG300”) or with test compounds. Compounds were dosed as a solution or suspension in the vehicle, adjusted to reflect the free amount of test article in the event that salt forms are utilized. Blood was drawn at 24 hr and blood lymphocyte counts were determined on an ADVIA 120 Hematology Analyzer (Siemens Healthcare Diagnostics). The results were measured as a reduction in the percentage of circulating lymphocytes as compared to the vehicle treated group at the time of measurement. The results represent the average results of all animals within each treatment group (n=2-4).

circulating lymphocytes [2] = assay: Blood Lymphocyte Reduction (BLR) assay in rat; type: in vivo, Lewis rats; conditions: oral; for Percent reduction vs. control at 24 hr post-dose: blood lymphocytes; for lymphocyte reduction: rodent BLR assay, 24 hours post-dose, versus vehicle treated group
Experimental: as §1, §2

[3] = system: adjuvant-induced arthritis, hind paw volume; assay: Rat Adjuvant Induced Arthritis Assay (AA); type: in vivo, Male Lewis rats; conditions: Lewis rat; for paw swelling (mL) on day 20, Mean / paw swelling (mL) on day 22, Mean: once daily oral prophylactic; for inhibition of disease progression as measured by reduced paw swelling: prophylactic oral dosing regimen, result in words
Experimental: Rat Adjuvant Induced Arthritis Assay (AA) The rat adjuvant-induced arthritis model is an animal model for human rheumatoid arthritis. Male Lewis rats (150-175 g; Harlan, n=8 treatment group) were immunized at the base of the tail with 100 μl of 10 mg/ml freshly ground Mycobacterium butyricum (Difco Laboratories) in incomplete Freund's adjuvant (sigma). Animals were dosed once daily with the test article (as a solution or suspension in the vehicle) or vehicle alone (polyethylene glycol 300, “PEG300”) starting from the day of immunization. The volumes of their hind paws were measured in a water displacement plethysmometer (Ugo Basile, Italy). The baseline paw measurements were taken before onset of the disease (between day 7 to day 10). […] All procedures involving animals were reviewed and approved by the Institutional Animal Care Use Committee.

[4] = system: MOG35-55 induced EAE, clinical score; assay: Mouse Experimental Autoimmune Encephalomyelitis Assay (EAE); type: in vivo, C57BL/6 mice; conditions: for inhibition of disease progression as measured by clinical scores / Clinical scores on day 21 (Mean): C57Bl/6 mice; for inhibition of disease progression as measured by clinical scores: prophylactic oral dosing regimen, result in words; for Clinical scores on day 21 (Mean): mouse EAE, prophylactic oral dosing; for Clinical scores on day 22, Mean: C57BL/6 mice, prophylactic oral
[5] = system: guinea pig myelin basic protein induced EAE, clinical score; assay: Rat Experimental Autoimmune Encephalomyelitis (EAE); type: in vivo, Female Lewis rats; conditions: Lewis rat; for Clinical Score on Day 11 (Mean): rat EAE, prophylactic oral dosing
Experimental: Rat Experimental Autoimmune Encephalomyelitis (EAE):
Female Lewis rats (150-200 g; Harlan) were immunized at the base of the tail with 0.1 ml of a complete Freund's adjuvant emulsion containing 0.5 mg/mL guinea pig myelin basic protein (Genemed Synthesis) and 2 mg/mL Mycobacterium butyricum (Difco). Beginning on Day 7, rats (n=11/group) were scored individually at least 3×/wk according to the following scheme:
Average clinical scores were calculated for each treatment group on each day of assessment.

anti-dsDNA antibodies = assay: MRL/lpr lupus model: anti-dsDNA antibody titers (ELISA); type: in vivo, Male MRL/lpr mice; conditions: MRL/lpr mice; for Anti-dsDNA antibody titers (23 weeks of age) (Mean): ratio to pooled MRL/lpr immune serum titer
Experimental: (§3) MRL/lpr is a spontaneous model of lupus. Male MRL/lpr mice (Jackson Laboratory) at the age of 12-14 weeks were enrolled for the study (N=12). Mice were dosed p.o. daily with vehicle (18.4% (w/v) hydroxypropyl-b-cyclodextrin in 13.8 mM citric acid) or with Example 681 at 0.06, 0.3, 1.5 mg/kg. Mice were bled every other week for anti-dsDNA antibodies measured by ELISA using pooled serum from diseased MRL/lpr mice as a positive comparator in each assay. The data were expressed in arbitrary units as a ratio of the titer of the test serum to the titer of the pooled MRL/lpr immune serum.

kidney histology score = assay: MRL/lpr lupus model: kidney histological analysis; type: in vivo, Male MRL/lpr mice; conditions: MRL/lpr mice; for Kidney Histology (nephritis) 23 weeks of age (Mean): total score, highest possible score=36
Experimental: as §3
At the end of study, one kidney was collected into 10% neutral buffered formalin and ZincTris fixatives. Fixed tissues were processed into paraffin blocks, sectioned at 3 μm, and stained with H&E or PASH. Kidney sections were graded using following criteria: Glomerular Damage: 1. Mesangial matrix thickening, cell proliferation, 2. Crescent formation, cellular deposits/casts in Bowman's space, 3. Cellular infiltration, mononuclear cells in glomerular tufts, 4. Fibrosis of Bowman's capsule. Tubular damage: 1. Infiltration of mononuclear cells, 2. Severity of tubular damage, 3. Protein casts. Tubulo-interstitial damage: 1. Fibrosis, 2. Infiltration of mononuclear cells. Each subcategory was assigned a score from 0-4, with the scores for glomerular indices representing the mean from 20 glomeruli per kidney. The total score for each mouse was the sum of the above 9 subcategories, with the highest possible score=36.

[6] = p.o. daily 0.06, 0.3, 1.5 mg/kg, result in words

For `CCCCCOc1ccc2cc([C@@H]3CC[C@](N)(CO)C3)ccc2c1` [Comparative Compound 703, reference compound], the lymphocyte reduction (circulating lymphocytes [1]; 1.0 mg/kg) was 52% and the “Mouse Blood Lymphocyte Reduction Assay at 24 hr post-dose Percent reduction vs. control” value (circulating lymphocytes [1]; 1.0 mg/kg) was 52%.
With `COCCCCC[C@H]1CCc2cc([C@H]3CC[C@](N)(CO)C3)ccc2C1` [Example 672, ((1R,3S)-1-amino-3-((S)-6-(5-methoxypentyl)-5,6,7,8-tetrahydronaphthalen-2-yl)cyclopentyl)methanol] the “Percent reduction vs. control at 24 hr post-dose” value (circulating lymphocytes [2]; 0.1 mg/kg) was 47%, the “paw swelling (mL) on day 20, Mean” value ([3]; 0.1 mg/kg) was 2.60 mL and the “paw swelling (mL) on day 20, Mean” value ([3]; 0.3 mg/kg) was 1.46 mL. The “paw swelling (mL) on day 20, Mean” value ([3]; 1.0 mg/kg) was 0.17 mL and the “inhibition of disease progression as measured by reduced paw swelling” value [3] was “showed inhibition of disease progression”.
`CCOCCC[C@H]1CCc2cc([C@H]3CC[C@](N)(CO)C3)ccc2C1` [Example 678, ((1R,3S)-1-amino-3-((R)-6-(3-ethoxypropyl)-5,6,7,8-tetrahydronaphthalen-2-yl)cyclopentyl)methanol] was tested, and the “Percent reduction vs. control at 24 hr post-dose” value (circulating lymphocytes [2]; 0.1 mg/kg) was 16%, the “Percent reduction vs. control at 24 hr post-dose” value (circulating lymphocytes [2]; 0.3 mg/kg) was 53% and the lymphocyte reduction (circulating lymphocytes [2]; 0.1 mg/kg) was 16%.
For `CCOCCC[C@@H]1CCc2cc([C@H]3CC[C@](N)(CO)C3)ccc2C1` [Example 679, ((1R,3S)-1-amino-3-((S)-6-(3-ethoxypropyl)-5,6,7,8-tetrahydronaphthalen-2-yl)cyclopentyl)methanol], the “Percent reduction vs. control at 24 hr post-dose” value (circulating lymphocytes [2]; 0.1 mg/kg) was 65%, the lymphocyte reduction (circulating lymphocytes [2]; 0.1 mg/kg) was 65% and the lymphocyte reduction (circulating lymphocytes [1]; 0.5 mg/kg) was 59%. The “Mouse Blood Lymphocyte Reduction Assay at 24 hr post-dose Percent reduction vs. control” value (circulating lymphocytes [1]; 0.5 mg/kg) was 59%, the “paw swelling (mL) on day 22, Mean” value ([3]; 0.1 mg/kg) was 1.55 mL and the “paw swelling (mL) on day 22, Mean” value ([3]; 0.5 mg/kg) was 0.36 mL. For the same molecule, the “paw swelling (mL) on day 22, Mean” value ([3]; 2.50 mg/kg) was 0.00 mL, the “inhibition of disease progression as measured by reduced paw swelling” value [3] was “showed inhibition of disease progression” and the “inhibition of disease progression as measured by clinical scores” value [4] was “showed inhibition of disease progression; also recorded: inhibit disease progression”. For the same molecule, the “Clinical scores on day 21 (Mean)” value ([4]; 0.6 mg/kg) was 2.9, the “Clinical scores on day 21 (Mean)” value ([4]; 3 mg/kg) was 1.8 and the “Clinical scores on day 21 (Mean)” value ([4]; 15 mg/kg) was 1.3. The “inhibition of disease progression as measured by reduced clinical scores” value ([5]; prophylactic oral dosing regimen, result in words) was “showed inhibition of disease progression”, the “Clinical Score on Day 11 (Mean)” value ([5]; 0.3 mg/kg) was 0.36 and the “Clinical Score on Day 11 (Mean)” value ([5]; 1.0 mg/kg) was 0.09. For the same molecule, the “Clinical Score on Day 11 (Mean)” value ([5]; 3.0 mg/kg) was 0.02.
`COc1ccccc1CC[C@@H]1CCc2cc([C@H]3CC[C@](N)(CO)C3)ccc2C1` [Example 681, ((1R,3S)-1-amino-3-((S)-6-(2-methoxyphenethyl)-5,6,7,8-tetrahydronaphthalen-2-yl)cyclopentyl)methanol] was tested, and the “Percent reduction vs. control at 24 hr post-dose” value (circulating lymphocytes [2]; 0.1 mg/kg) was 53%, the lymphocyte reduction (circulating lymphocytes [2]; 0.1 mg/kg) was 53% and the lymphocyte reduction (circulating lymphocytes [1]; 0.5 mg/kg) was 85%. For the same molecule, the “Mouse Blood Lymphocyte Reduction Assay at 24 hr post-dose Percent reduction vs. control” value (circulating lymphocytes [1]; 0.5 mg/kg) was 85%, the “Clinical scores on day 22, Mean” value ([4]; 0.1 mg/kg) was 3.1 and the “Clinical scores on day 22, Mean” value ([4]; 0.5 mg/kg) was 1.1. For the same molecule, the “Clinical scores on day 22, Mean” value ([4]; 2 mg/kg) was 0.8, the “inhibition of disease progression as measured by clinical scores” value [4] was “showed inhibition of disease progression; also recorded: inhibit disease progression” and the “Anti-dsDNA antibody titers (23 weeks of age) (Mean)” value (“Anti-dsDNA antibody titers” for short) (anti-dsDNA antibodies; 0.06 mg/kg p.o. daily) was 1.861 arbitrary units. For the same molecule, the “Anti-dsDNA antibody titers” value (anti-dsDNA antibodies; 0.3 mg/kg p.o. daily) was 0.978 arbitrary units, the “Anti-dsDNA antibody titers” value (anti-dsDNA antibodies; 1.5 mg/kg p.o. daily) was 1.023 arbitrary units and the “inhibition of disease progression as measured by anti-dsDNA titers” value (anti-dsDNA antibodies; [6]) was “showed inhibition of disease progression”. The “Kidney Histology (nephritis) 23 weeks of age (Mean)” value (“Kidney Histology … (Mean)” for short) (kidney histology score; 0.06 mg/kg p.o. daily) was 10.13, the “Kidney Histology … (Mean)” value (kidney histology score; 0.3 mg/kg p.o. daily) was 10.00 and the “Kidney Histology … (Mean)” value (kidney histology score; 1.5 mg/kg p.o. daily) was 12.63. The “inhibition of disease progression as measured by kidney histology” value (kidney histology score; [6]) was “showed inhibition of disease progression”.
In the case of `COc1ccccc1CC[C@H]1CCc2cc([C@H]3CC[C@](N)(CO)C3)ccc2C1` [Example 682, ((1R,3S)-1-amino-3-((R)-6-(2-methoxyphenethyl)-5,6,7,8-tetrahydronaphthalen-2-yl)cyclopentyl)methanol], the “Percent reduction vs. control at 24 hr post-dose” value (circulating lymphocytes [2]; 0.1 mg/kg) is reported as 17%, the “Percent reduction vs. control at 24 hr post-dose” value (circulating lymphocytes [2]; 2.0 mg/kg) is reported as 83% and the lymphocyte reduction (circulating lymphocytes [2]; 0.1 mg/kg) is reported as 17%.
With `COc1cccc(OC[C@@H]2CCc3cc([C@H]4CC[C@](N)(CO)C4)ccc3C2)c1` [Example 684, ((1R,3S)-1-amino-3-((R)-6-((3-methoxyphenoxy)methyl)-5,6,7,8-tetrahydronaphthalen-2-yl)cyclopentyl)methanol] the “Percent reduction vs. control at 24 hr post-dose” value (circulating lymphocytes [2]; 0.05 mg/kg) was 72%, the lymphocyte reduction (circulating lymphocytes [1]; 0.5 mg/kg) was 79% and the “Mouse Blood Lymphocyte Reduction Assay at 24 hr post-dose Percent reduction vs. control” value (circulating lymphocytes [1]; 0.5 mg/kg) was 79%.
In the case of `COc1cccc(OC[C@H]2CCc3cc([C@H]4CC[C@](N)(CO)C4)ccc3C2)c1` [Example 685, ((1R,3S)-1-amino-3-((S)-6-((3-methoxyphenoxy)methyl)-5,6,7,8-tetrahydronaphthalen-2-yl)cyclopentyl)methanol], the “Percent reduction vs. control at 24 hr post-dose” value (circulating lymphocytes [2]; 0.1 mg/kg) is reported as 55%.
